*: point of attachment. Cholyl = C[C@H](CCC(=O)*)[C@H]1CC[C@H]2[C@@H]3[C@H](O)C[C@@H]4C[C@H](O)CC[C@]4(C)[C@H]3C[C@H](O)[C@]12C
Legend:
[1] = test system: DU145 cells implanted subcutaneously; assay: DU145 xenograft tumor growth in nude mice; format: in vivo, Nu/Nu mice; settings: intra-tumoral 30 mg/kg once every 2 days, start at 50 mm^3 twenty days after implantation; vehicle control 160 mm^3
Source text: To test the effects of PACE4 inhibitors in vivo, a nude mouse model was used in order to validate PACE4's role in tumor progression within an integrated system. […] The genetic basis of the nude mouse mutation is a disruption of the Foxn1 gene. The nude mouse can receive many different types of tissue and tumor grafts, as it mounts no rejection response. These xenografts are commonly used to test new methods of treating tumors. Nude mice were used to test the tumor progression of control DU145 cells compared to PACE4 silenced DU145 cells (clone 4-2) (FIG. 11). Control tumor received vehicle (DMSO) injections. Control tumor continued their growth pattern, reaching an average size of 160 mm^3, while treated tumors only reached a size of 75 mm^3 (FIG. 11A). Consequently, PACE4 inhibition by the specific inhibitors described herein reduces tumors growth. The nude mouse model is well known and extensively tested (Naomoto et al., 1987, J. Cancer Res. Clin. Oncol., 113: 544-549; Taetle et al., 1987 Cancer Treat. Rep. 71: 297-304).
DU145 cells were implanted subcutaneously (sc) at two sites on the backs of Nu/Nu mice, which lack an immune system. […] The genetic basis of the nude mouse mutation is a disruption of the Foxn1 gene. The nude mouse can receive many different types of tissue and tumor grafts, as it mounts no rejection response. […]

[2] = test system: prostatic cell line DU145; assay: MTT cell proliferation index, DU145; format: cell-based, human; settings: for Cell proliferation index: control = 100%, MTT after 48 hours
Method: The effects of the PACE4 inhibitors on cell proliferation were evaluated. MTT assay was used to evaluate the effects of PACE4 inhibitors on cell proliferation. MTT (3-(4,5-Dimethylthiazol-2-yl)-2,5-diphenyltetrazolium bromide) assay is a standard colorimetric assay for measuring cellular proliferation. Yellow MTT is reduced to purple formazan in the mitochondria of living cells. This reduction takes place only when mitochondrial reductase enzymes are active. Conversion is directly related to the number of viable cells. The MTT assay is quantitative and more sensitive than viability using trypan blue and can also be adapted to 96 well formats, whereas trypan blue tests must be read individually. Because the MTT assay requires less cell manipulation than [^3H]thymidine incorporation assays (no cell harvesting or medium changes are necessary), the possibility of error is reduced and the standard deviation values are lower. […] Other assays also known can be used to determine the effects of an inhibitor on the proliferation of a cell.
The index of cellular proliferation of cells treated with the ML and acetyl-ML (CH3CO—NH-[…]-CONH2 (SEQ ID NO: 5), see Table 2) peptides were measured using the colorimetric MTT assay (thiazolyl blue tetrazolium bromide; Sigma-Aldrich). Briefly, cells were seeded in 96-well plate (BD Biosciences) in triplicate with 100 μl of a 3.5×10^4 cells/ml cell suspension in complete growth medium. The following day, cells were carefully washed twice with PBS and media were replaced with 100 μl of either RPMI or conditioned growth media. Conditioned growth medium preparation consists in 1.2×10^5 cells seeded in 6-well plates with complete growth media. The next day, cells are washed twice with PBS and the media are replaced with 1 ml RPMI growth medium. 48 hours later, the conditioned media are collected, filtered through […] syringe filter units and incubated on different cell lines.
48 hours later, 20 μl of a MTT solution (5 mg/ml in PBS 1×) was added to each well for 4.5 h at 37° C./5% CO2. The media was then discarded and the cells were solubilized with 100 μl isopropanol/0.04 N HCl solution. The absorbance was measured at a wavelength of 550 nm with a reference at 650 nm in microplate reader (SpectraMax190™; Molecular Devices).

Cholyl-NH-LLLLRVKR-NH2 (Cholyl-LLLLRVKR-NH2) [cholyl ML]
average tumor size reached [1]: 75 mm^3
effect on cell proliferation index, in words ([2]; DU145): more potent effects than ML or acetyl-ML peptides
Cell proliferation index ([2]; DU145, 1 μM peptide): 86.65%
Cell proliferation index ([2]; DU145, 10 μM peptide): 38.70%
Cell proliferation index ([2]; DU145, 100 μM peptide): 4.36%
